Experimental data published in BindingDB's records for patent US8680132 (University of Michigan, 2014).

Target: E3 ubiquitin-protein ligase Mdm2 (Homo sapiens, UniProt Q00987)
Experiment: Fluorescence-polarization Binding Assay
Details: pH 7.5

E3 ubiquitin-protein ligase Mdm2, sequence (Q00987 whole entry): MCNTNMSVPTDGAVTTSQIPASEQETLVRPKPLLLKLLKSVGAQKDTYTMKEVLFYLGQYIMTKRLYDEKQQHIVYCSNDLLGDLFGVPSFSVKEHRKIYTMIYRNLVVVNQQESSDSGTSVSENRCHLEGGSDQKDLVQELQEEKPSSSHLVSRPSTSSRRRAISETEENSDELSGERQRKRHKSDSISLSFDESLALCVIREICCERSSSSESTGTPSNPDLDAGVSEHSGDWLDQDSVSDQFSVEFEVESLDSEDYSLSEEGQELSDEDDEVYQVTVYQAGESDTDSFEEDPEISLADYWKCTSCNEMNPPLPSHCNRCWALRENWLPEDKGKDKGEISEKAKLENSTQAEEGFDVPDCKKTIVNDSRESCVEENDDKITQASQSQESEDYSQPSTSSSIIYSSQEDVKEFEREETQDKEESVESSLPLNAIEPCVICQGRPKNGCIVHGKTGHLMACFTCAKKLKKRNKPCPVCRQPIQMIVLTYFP

IC50: < 1 µM
Structure (SMILES): O=C(NCC[C@H](O)CO)[C@@H]1N[C@H](CC2CCCCC2)[C@]2(C(=O)Nc3cc(Cl)c(F)cc32)[C@H]1c1cccc(Cl)c1
